Assay results taken from patent US20230065953A1, “NOVEL HETEROARYL-TRIAZOLE COMPOUNDS AS PESTICIDES” (Bayer Aktiengesellschaft, priority 2019, published 2023).

Columns and labels:
Assay type in all cases: in vivo
[1] = tested on: cattle ticks (Rhipicephalus microplus) strain Parkhurst, SP-resistant; assay: Rhipicephalus (Boophilus) microplus dip test; details: 100 ppm, egg deposition after 7 days
Protocol: Rhipicephalus (Boophilus) Microplus—Dip Test
Test animal: cattle ticks (Rhipicephalus microplus) strain Parkhurst, SP-resistant
Solvent: dimethyl sulfoxide
To produce a suitable preparation of active compound, 10 mg of active compound are dissolved in 0.5 mL solvent, and the concentrate is diluted with water to the desired concentration.
This compound solution is pipetted into tubes. 8-10 engorged, adult, female cattle ticks (Rhipicephalus microplus) are placed in perforated tubes. These tubes are immersed in the aqueous compound solution until the ticks are completely moistened. After the liquid has drained off, the ticks are transferred to a filter paper in a plastic tray and stored in a climate chamber.
After 7 days egg deposition of fertile eggs is monitored. Eggs where fertility is not visible are stored in a climate chamber till hatching after about 42 days. An efficacy of 100% means all eggs are infertile; 0% means all eggs are fertile.

[2] = tested on: adult mosquitoes Culex quinquefasciatus strain P00; assay: whole plant or invertebrate; details: read-out: efficacy (mortality)
Protocol: Culex quinquefasciatus Test (CULXFA Surface Treatment & Contact Assay) • Solvent: Aceton+2000 ppm rapeseed oil methyl ester (RME)
(§1) In order to produce a sufficient, active ingredient containing solution it is necessary to solve the test compound in the solvent-mix (acetone at 2 mg/ml/RME 2 OOOppm). This solution is pipetted onto a glazed tile and after evaporation of the acetone, adult mosquitoes of the species Culex quinquefasciatus strain P00 are placed onto the dried surface. The exposure time is 30 minutes.
(§2) Mortality in percent (%) is determined 24 hours after contact of the insects to the treated surface. 100% mortality means that all tested insects are dead, whereas 0% means that no insect died.

[3] = tested on: adult engorged female ticks (Rhipicephalus microplus); assay: Rhipicephalus (Boophilus) microplus injection test; details: 168 h, egg deposition after 7 days, read-out: efficacy (infertile eggs); for pest or weed control at 0.004 mg: 4 μg/animal
How it was run: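 Five adult engorged female ticks each injected into the abdomen with 1 μL of compound in DMSO, then kept in a climate chamber. Fertile egg deposition assessed after 7 days, with unclear eggs held until hatching around 42 days; efficacy 100% means all eggs infertile, 0% all fertile.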

[4] = tested on: adult mosquitoes Aedes aegypti strain MONHEIM; assay: Aedes aegypti test (AEDSAE surface treatment & contact assay); details: 24 hours after contact, read-out: efficacy (mortality); for mortality at 4 mg/m2: surface concentration 4 mg/m^2, 30 min exposure; for mortality at 20 mg/m2: surface concentration 20 mg/m^2, 30 min exposure
How it was run: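 Test compound in acetone (2 mg/ml) with 2000 ppm rapeseed oil methyl ester was dried onto a glazed tile. Adult Aedes aegypti MONHEIM were exposed to the treated surface for 30 minutes. Percent mortality was scored 24 hours after contact.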

[5] = tested on: adult mosquitoes Anopheles funestus strain FUMOZ-R; assay: Anopheles funestus test (ANPHFU surface treatment & contact assay); details: surface concentration 4 mg/m^2, 30 min exposure, 24 hours after contact, read-out: efficacy (mortality)
Protocol: Anopheles funestus Test (ANPHFU Surface Treatment & Contact Assay) • Solvent: Aceton+2000 ppm rapeseed oil methyl ester (RME)
as §1, with “2000 ppm).” for “2 OOOppm).”, “Anopheles funestus” for “Culex quinquefasciatus”, “FUMOZ-R (Hunt et al., Med. Vet. Entomol. 2005 September; 19(3): 271-275)” for “P00”
as §2

[6] = tested on: green peach aphid (Myzus persicae); assay: Myzus persicae spray test; details: foliar, 120 h, Chinese cabbage leaf disks, after 5 days
How it was run: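 Chinese cabbage leaf discs infested with all instars of the aphid were sprayed with compound prepared in acetone/DMF and diluted in water containing 1000 ppm emulsifier. Mortality (%) was scored after 5 days, 100% meaning all aphids killed and 0% none.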

[7] = tested on: brown planthopper (Nilaparvata lugens); assay: Nilaparvata lugens spray test; details: 96 h, 100 g/ha, rice plants, after 4 days
Protocol: Nilaparvata lugens—Spray Test • Solvent: 78.0 parts by weight of acetone • 1.5 parts by weight of dimethylformamide • Emulsifier: alkylarylpolyglycol ether
To produce a suitable preparation of active compound, 1 part by weight of active compound is mixed with the stated amount of solvents and is diluted with water, containing an emulsifier concentration of 1000 ppm, to the desired concentration. Further test concentrations are prepared by dilution with emulsifier containing water.
Rice plants (Oryza sativa) are sprayed with a preparation of the active ingredient of the desired concentration and the plants are infested with the brown planthopper (Nilaparvata lugens).
After 4 days mortality in % is determined. 100% means all planthoppers have been killed and 0% means none of the planthoppers have been killed.

[8] = tested on: larvae of the southern green stink bug (Nezara viridula); assay: Nezara viridula spray test; details: in Hordeum vulgare, 96 h
How it was run: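 Barley plants sprayed with compound in acetone/dimethylformamide, diluted in water with 1000 ppm alkylarylpolyglycol ether emulsifier, then infested with Nezara viridula larvae. Percent mortality read after 4 days (100% = all killed, 0% = none).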

Row | SMILES | efficacy (infertile eggs) [1] | mortality at 4 mg/m2 [2] | pest or weed control at 0.004 mg [3] | pest or weed control at 0.02 mg ([3]; 20 μg/animal) | mortality at 4 mg/m2 [4] | mortality at 20 mg/m2 [4] | mortality at 4 mg/m2 [5] | mortality at 100 g/ha [6] | mortality at 100 g/ha [7] | mortality at 100 g/ha [8]
1 | C[C@H](NC(=O)c1cc(C(F)(F)F)cc(C(F)(F)F)c1)c1ncnn1-c1ncc(C#N)s1 [I-2] | 100% | 80 to 100% | 100% | 100% | 80 to 100% | 80 to 100% | 80 to 100% |  |  | 
2 | Cc1nc([C@H](C)NC(=O)c2cc(C(F)(F)F)cc(C(F)(F)F)c2)n(-c2ncc(C(=O)N(C)CC3CC3)s2)n1 [I-4] |  |  | 100% |  |  | 80 to 100% |  | 90% | 90% | 
3 | Cc1nc([C@H](C)NC(=O)c2cc(C(F)(F)F)cc(C(F)(F)F)c2)n(-c2ncc(C(=O)N(C)C)s2)n1 [I-5, 2-(5-{(1S)-1-[3,5-bis(trifluoromethyl)benzamido]ethyl}-3-methyl-1H-1,2,4-triazol-1-yl)-N,N-dimethyl-1,3-thiazole-5-carboxamide] | 100% |  | 100% |  |  |  |  | 90% | 100% | 
4 | CCN(C)C(=O)c1cnc(-n2nc(C)nc2[C@H](C)NC(=O)c2cc(C(F)(F)F)cc(C(F)(F)F)c2)s1 [I-6] | 100% |  | 100% |  | 80 to 100% |  |  | 100% | 100% | 
5 | Cc1nc([C@H](C)NC(=O)c2cc(C(F)(F)F)cc(C(F)(F)F)c2)n(-c2ncc(C(=O)N(C)CC#N)s2)n1 [I-9] | 100% |  | 100% |  | 80 to 100% | 80 to 100% |  | 100% | 100% | 90%
6 | Cc1nc([C@H](C)NC(=O)c2cc(C(F)(F)F)cc(C(F)(F)F)c2)n(-c2ncc(C(N)=O)s2)n1 [I-21, 2-(5-{(1S)-1-[3,5-bis(trifluoromethyl)benzamido]ethyl}-3-methyl-1H-1,2,4-triazol-1-yl)-1,3-thiazole-5-carboxamide] |  |  | 100% |  | 80 to 100% | 80 to 100% |  | 100% |  | 100%
